We go through 5 compounds from US11220629B2, “Two-photon fluorescent compounds for specific lipid droplet imaging in live cells and deep tissues at ultralow concentration” (THE HONG KONG UNIVERSITY OF SCIENCE AND TECHNOLOGY, priority 2018, dated 2022).

Like-named read-outs stand apart in the source and are kept apart here. Bounds are passed on as bounds.

The nature of data set [1]: Two-photon absorption (TPA) cross section of aggregate suspensions, fluorescein as standard. In kind it is physicochemical. Conditions: aggregate suspension in H2O containing 1% CH3CN. How it is done:
With fluorescein as the standard, the TPA cross sections (δ) of NAP AIEgens at different wavelengths were also measured (FIG. 8F). […] To further acquire the TPEF, NAP AIEgens in solid states were directly excited at 800 nm (intensity of about 0.35 mW).

Data set [2] can be described thus: Absorption and fluorescence (photophysical properties) in solvent and solid state. In kind it is physicochemical. The following applies: for Φ (fluorescence quantum yield): integrating sphere; for Solvatochromism: toluene, diethyl ether, THF, acetone, DMSO. As for the experimental part:
^1H and ^13C NMR spectra were measured on Bruker ARX 400 NMR spectrometers using CDCl3 as the deuterated solvent. High-resolution mass spectra (HRMS) were recorded on a Finnegan MAT TSQ 7000 Mass Spectrometer System operating in a MALDI-TOF mode. UV absorption spectra were taken on a Milton Ray Spectronic 3000 array spectrophotometer. Steady-state fluorescence spectra were recorded on a Perkin Elmer LS 55 spectrometer. Fluorescence images were collected on Olympus BX 41 fluorescence microscope. Laser confocal scanning microscope images were collected on Zeiss laser scanning confocal microscope (LSM7 DUO) and analyzed using ZEN 2009 software (Carl Zeiss). Two-photon fluorescence imaging was carried out on Olympus FV 300 laser confocal microscope. In two-photon experiments, the excitation wavelengths were 860 nm from a Ti:sapphire femtosecond laser source (coherent chamelon ultra) and the incident power on samples was modified by means of an attenuator and examined with a power monitor (Coherent). A multiphoton emission filter (FF01-750; Semrock) was used to block the IR laser.
The absorption and fluorescence (FL) data of the NAP AIEgens were investigated, and corresponding spectra are shown in FIGS. 5A-5H, 6A-6E, and FIG. 7.
This phenomenon is probably due to the changes in morphology and size of the aggregates formed in the water-THF mixture with high water fractions. […] It should be noted that the FL of NAP AIEgens in high water fraction (fw>90%) increased only several-fold compared with that in THF or CH3CN (FIG. 5G), probably because of formation of loosely packed aggregates. […] The FL spectra of NAP AIEgens were further measured in different polar solvents (FIGS. 6A-6E). […] As for NAP-CF3, the reason for blue-shifted FL in the solid state was likely its twisted structure (FIG. 2E), resulting in only […] π-π interaction rather than J-aggregation (FIG. 2B). […] The FL quantum yields (QYs, Table 1) of NAP AIEgens were measured by using an integrating sphere. […] It should be pointed out that the solid FL QY of NAP-Py^+ was low, likely due to a narrow energy gap and enhanced nonradiative transitions in NIR fluorescent dyes (FIG. 7). Furthermore, longer FL lifetimes of NAP AIEgens in the solid state than those in solvents also verified that restriction of intramolecular motion (RIM) can prohibit energy dissipation via non-radiative channels and enhance the FL of NAP AIEgens (Table 1).

The subject of data set [3] is mitochondria in HeLa cells. The experiment in a line: Co-staining imaging with mitochondria dye MitoTracker Deep Red FM. In kind it is cell-based. Conditions: NAP-Py^+ 1 μM, MTDR 100 nM. How it is done: (§1) To confirm the intracellular location of NAP AIEgens in live cells, co-staining imaging experiments were performed. […] It is believed that positive-charged dyes like NAP-Py^+ can stain mitochondria due to the high negative membrane potential of mitochondria. To determine why other NAP AIEgens without positive charge locate in LDs, additional investigation was conducted.

In a further data set the test system is HeLa cells. Kind of data set: Photostability under continuous confocal laser irradiation. Format: cell-based. Conditions: continuous irradiation for 10 min; NAP AIEgens 405 nm, Nile Red 543 nm, power 12%. How it is done:
FIG. 20 is a graph depicting photostability of NAP AIEgens and Nile Red in HeLa cells under continuous irradiation (irradiation conditions: for NAP AIEgens, 405 nm laser, laser power of 12%; for Nile Red, 543 nm laser, laser power of 12%).
Considering the above-mentioned excellent bioimaging characteristics of these NAP AIEgens, further experiments were performed to evaluate their photostability and cytotoxicity. The photostability of NAP AIEgens was evaluated by continuous irradiation with confocal lasers, and data was collected every second. […] Furthermore, standard MTT (3-(4,5-dimethylthiazol-2-yl)-2,5-diphenyl-2H-tetrazolium) assays were performed to evaluate the cytotoxicity of NAP AIEgens in live cells.

The subject of data set [4] is LDs in HeLa cells. The experiment in a line: One-photon LDs imaging at 50 nM. Format: cell-based. Conditions: 405 nm laser intensity 12%. As for the experimental part: One-photon imaging experiments in HeLa cells stained with 50 nM of NAP-Ph, NAP-Br, NAP-CF3, and NAP-Py were performed, and Nile Red was used as comparison. […] As far as we know, this is the lowest concentration used for LDs imaging.

Data set [5] concerns LDs in HeLa cells. Kind of data set: Co-staining imaging with LDs dye Nile Red (CLSM). Format: cell-based. Conditions: 100 nM. How it is done: as §1
The subject of data set [6] is LDs in live mice liver tissue. Kind of data set: Ex vivo two-photon imaging of live mice liver tissue. The following applies: 1 μM, 1 h incubation, λex 860 nm. How it is done: TP fluorescence imaging outperforms imaging in one-photon mode as a result of high penetration in tissues and low background fluorescence because of near-infrared light excitation and low excitation power. […] After incubation with NAP-CF3 (1 μM) for 1 h, bright spherical spots with TP fluorescence of NAP-CF3 were observed (FIG. 18). For the live mice liver tissue without NAP-CF3, however, only low background fluorescence was obtained. […] To investigate whether NAP-CF3 could show LDs-specific staining in deep live mice liver tissue, TP fluorescence images along the Z-axis were captured. As shown in FIGS. 19A-19F, the fluorescent signal of the spherical spot could be clearly detected at different Z-axis depths even up to 70 μm. […] These excellent TP tissue imaging properties render NAP-CF3 a tremendous tool to visualize LDs-associated biomedical application in live tissues.

The mark [7] stands for this setting: THF or CH3CN (CH3CN for NAP-Py^+).
Where [8] appears, read: THF or CH3CN (CH3CN for NAP-Py^+), listed as NAP-Py^+.

As for `COc1c(/C=C(\C#N)c2ccc(-c3ccncc3)cc2)ccc2cc(N(C)C)ccc12` [NAP-Py], the “TPA cross section (δ) value” in data set [1] is reported as “very large”. For the same compound, in data set [2], the “αAIE = Φsolid/Φsolvent” value is reported as 14.47 and the Solvatochromism entry is on record as “positive solvatochromism”. For the same compound, in data set [2] (Solid), the λem max stood at 619 nm, the “τ (fluorescence lifetime)” value is 1.39 ns and the “Φ (fluorescence quantum yield)” value stood at 0.217. Further, in data set [2] (Solid, listed as NAP-Py^+), the “Φ (fluorescence quantum yield)” value came to 0.048, the λem max was 676 nm and the “τ (fluorescence lifetime)” value worked out at 1.32 ns. In data set [2] (setting [7]), the Stokes shift is recorded as 128 nm, the λabs max was 413 nm, the λem max stood at 541 nm and the “τ (fluorescence lifetime)” value is under 0.67 ns. The “Φ (fluorescence quantum yield)” value in data set [2] (setting [7]) is 0.015. In addition, in data set [2] (setting [8]), the “Φ (fluorescence quantum yield)” value came out at 0.008, the Stokes shift is recorded as 85 nm, the λabs max was 455 nm and the λem max came out at 540 nm. Also, in data set [2] (setting [8]), the “τ (fluorescence lifetime)” value was under 0.58 ns. In data set [2] (listed as NAP-Py^+), the “αAIE = Φsolid/Φsolvent” value came to 6.00 and the Solvatochromism entry was “negative solvatochromism”. The “Pearson's coefficient with MitoTracker Deep Red FM” value in data set [3] turned out to be 0.89. Moreover, in the data set with HeLa cells, the “Fluorescence intensity change under irradiation” value (“Fluorescence intensity change” below) is “dropped to some extent”. Further, in the data set with LDs in HeLa cells [4], the LDs staining entry was “clear fluorescence”. In addition, the “Pearson's coefficient with Nile Red” value in the data set with LDs in HeLa cells [5] is 0.88.
Regarding `CCN(CC)c1ccc2nc3c4ccccc4c(=O)cc-3oc2c1` [Nile Red, reference compound], in the data set with HeLa cells, the “Fluorescence intensity change” value was “drastically decreased”. Besides, in the data set with LDs in HeLa cells [4], the LDs staining result is listed as “non-specific staining in cytoplasm”.
With `COc1c(/C=C(\C#N)c2cc(C(F)(F)F)cc(C(F)(F)F)c2)ccc2cc(N(C)C)ccc12` [NAP-CF3], in data set [6], the “LDs staining in live mice liver tissue” value was “excellent LDs staining property” and the “Z-axis depth at which fluorescent signal is detected” value is on record as “up to 70 μm”. In data set [2], the “αAIE = Φsolid/Φsolvent” value was determined as 18.25 and the Solvatochromism result is on record as “positive solvatochromism”. Moreover, in data set [2] (Solid), the λem max is on record as 555 nm, the “τ (fluorescence lifetime)” value turned out to be 6.29 ns and the “Φ (fluorescence quantum yield)” value came to 0.292. Besides, in data set [2] (setting [7]), the Stokes shift was 135 nm, the λabs max amounted to 425 nm, the λem max was determined as 560 nm and the “τ (fluorescence lifetime)” value is under 0.67 ns. Also, the “Φ (fluorescence quantum yield)” value in data set [2] (setting [7]) is on record as 0.016. Further, the LDs staining entry with LDs in HeLa cells [4] is listed as “clear fluorescence”. Also, the “Pearson's coefficient with Nile Red” value in the data set on LDs in HeLa cells [5] was found to be 0.85.
Consider `COc1c(/C=C(\C#N)c2ccc(-c3ccccc3)cc2)ccc2cc(N(C)C)ccc12` [NAP-Ph], for which, in data set [2], the “αAIE = Φsolid/Φsolvent” value is listed as 14.89 and the Solvatochromism result is on record as “positive solvatochromism”. Also, in data set [2] (Solid), the λem max is 566 nm, the “τ (fluorescence lifetime)” value was 1.42 ns and the “Φ (fluorescence quantum yield)” value worked out at 0.268. Further, in data set [2] (setting [7]), the Stokes shift was 114 nm, the λabs max worked out at 409 nm, the λem max is recorded as 523 nm and the “τ (fluorescence lifetime)” value is listed as under 0.34 ns. Also, in data set [2] (setting [7]), the “Φ (fluorescence quantum yield)” value came to 0.018. Also, the λem max in data set [2] (THF/water mixture, water fraction 90%, aggregates) was determined as 557 nm. In addition, in the data set on HeLa cells, the “Fluorescence intensity change” value was “dropped to some extent”. In addition, the LDs staining result in the data set on LDs in HeLa cells [4] was “clear fluorescence”. The “Pearson's coefficient with Nile Red” value in the data set on LDs in HeLa cells [5] is on record as 0.90.
`COc1c(/C=C(\C#N)c2ccc(Br)cc2)ccc2cc(N(C)C)ccc12` [NAP-Br]: in data set [2], the “αAIE = Φsolid/Φsolvent” value was found to be 9.00 and the Solvatochromism result is “positive solvatochromism”. In addition, in data set [2] (Solid), the λem max was found to be 597 nm, the “τ (fluorescence lifetime)” value was 4.43 ns and the “Φ (fluorescence quantum yield)” value is recorded as 0.126. Besides, in data set [2] (setting [7]), the Stokes shift was 116 nm, the λabs max was determined as 409 nm, the λem max turned out to be 525 nm and the “τ (fluorescence lifetime)” value is listed as under 0.60 ns. For the same compound, the “Φ (fluorescence quantum yield)” value in data set [2] (setting [7]) is listed as 0.014. The “Fluorescence intensity change” value in the data set with HeLa cells was “dropped to some extent”. Also, the LDs staining entry with LDs in HeLa cells [4] is given as “clear fluorescence”. For the same compound, the “Pearson's coefficient with Nile Red” value with LDs in HeLa cells [5] worked out at 0.83.
